This is an account of results in paper PMC3684770 (Free Radical Biology & Medicine, 2013).

Where “and” joins values, the source holds several entries; their conditions need not be identical. Equal values may be shown once.

In data set [1] the test system is Nrf2-ARE pathway. Put plainly: ARE reporter assay in NSC34 cell line (NSC34-ARE). It counts as cell-based, mouse. The source says:
(§1) Chinese hamster ovary (CHO), NSC34 mouse motor neuronal cells […] The ARE-TK-GFP and TK-GFP reporter constructs were a kind gift from William E. Fahl McArdle Laboratory for Cancer Research, University of Wisconsin. […] The NSC34 cell lines stably expressing G93A mutant hSOD1 have been described previously. […] Mouse embryonic fibroblasts were generated and maintained as described previously.
On the technique in general: A reporter such as luciferase makes a cellular process visible.

Data set [2] concerns primary mouse motor neurons. The data set can be described thus: Primary motor neuron/astrocyte coculture, menadione stress. It counts as cell-based. The conditions noted are these: 24-h pretreatment, 6 h 10 µM menadione. Here is the method:
Mouse glial cultures were established based on published methods [[68,69]]. Primary spinal cord motor neurons (MNs) were cultured from E13.5 C57Bl/6 mouse embryos as described previously. Cocultures were allowed to establish for 2 weeks and neuroprotection assays performed. Cocultures were exposed to drug or vehicle for 24 h followed by a 6-h treatment with menadione (10 μM) to induce oxidative stress or with no stress to determine the effect of drug alone. Following stress treatment, coverslips were washed 3 times, fixed, and permeabilised, and MNs immunostained with SMI32 (Covance, UK). Total MNs were counted by fluorescence microscopy in a 1.5 cm^2 area per coverslip. A minimum of three repeats in triplicate were performed per condition. Both vehicle and drug treatments were counted with and without stress treatment, and results were analysed by two-way ANOVA using Bonferroni post tests.

The subject of data set [3] is primary fibroblasts from ALS patients. Put plainly: Menadione-induced cell death in fibroblasts (MTT). Format: cell-based, human. The note with it: sporadic and I113T SOD1 ALS fibroblasts, 4 µM. Here is the method: The method used was essentially as described previously. Briefly methylthiazolyldiphenyl-tetrazolium bromide (MTT) was added to the cells and a blank well to a final concentration 0.5 mg/ml and incubated at 37 °C for 1–3 h depending on the cell line used. Cells and reaction product were solubilised in 20% SDS/50% DMF for 1 h with shaking at room temperature before reading the absorbance at 595 nm.

The subject of data set [4] is HO-1 and NQO1 gene expression. The data set can be described thus: Q-RTPCR of Nrf2-regulated genes in C6 cells. Format: cell-based, rat. The conditions noted are these: C6, 24-h treatment at EC50 and EC90. As to the method:
(§2) Nrf2 Target gene expression was determined using Q-RTPCR as described previously using the following primers: Ho-1 forward primer, cac ttc gtc aga ggc ctg cta; Ho-1 reverse primer, gcg gtg tct ggg atg agc ta; Nqo1 forward primer, cgc ctg agc cca gat att gt; Nqo1 reverse primer, act gca atg gga act gaa ata tca; GAPDH forward, gaa acc tgc caa gta tga tga cat; GAPDH reverse, ggt cct cag tgt agc cca aga t.

The test system of a further data set is SOD1G93A transgenic mice. Put plainly: SOD1G93A transgenic mouse model of ALS. It counts as in vivo. Here is the method: Pharmacology experiments in SOD1^G93A transgenic mice were conducted according to the published guidelines for studies in this model. […] The litters were split to enable an even distribution of sex and parentage between the two comparison groups and the groups randomly assigned to treatment or control. […] Behavioural assessment was carried out blinded to treatment group. Rotarod training was performed over 3 days with 2 trials per day. Subsequently, the rotarod test was performed once per week in the afternoon. On each day, mice were tested twice with a rest period in between tests. The best score was taken for analysis. […] Latency to fall (s) was recorded in seconds for each mouse. […] They were placed on the catwalk apparatus in complete darkness and the recording of gait patterns was performed in a separate room. Multiple runs were recorded for each mouse and three selected for analysis. Processing of gait data was performed using the dedicated software, with the assignment of limbs performed manually and subsequent automated calculation of gait parameters.
Specimens were incubated overnight in 20% sucrose and then embedded in OCT embedding matrix. Thirty five-micrometer-thick longitudinal sections were collected. […] Images were captured on an Incell 2000 and innervated (yellow) or denervated (red) end-plates were counted with a minimum of 1000 NMJs counted per animal.

In another data set the test system is HO-1 gene expression. The data set can be described thus: Pharmacodynamic analysis: gene expression in spinal cord. Format: in vivo, mouse. The note with it: 5 mg/kg sc, 48 h postdosing. The source says: RNA was isolated using Qiagen RNeasy mini kit and Q-RTPCR performed on HO-1 and NQO-1 genes as described previously.
Data set [5] in a line: Pharmacokinetic analysis in C57Bl/6 mice. It counts as in vivo, mouse. The note with it: C57Bl/6, mouse, brain / plasma; iv 1 mg/kg; read-out: brain uptake (AUCinfinity brain / AUCinfinity plasma). As to the method: Pharmacokinetic studies were performed by Pharmidex (London, UK). […] All concentrations were calculated with reference to the relevant standard curve. An extraction buffer (EB) solution of acetonitrile with 0.1% formic acid (Fisher Scientific, HPLC grade) and 500 ng/ml of propranolol as the internal standard (IS) was used for in all extraction protocols.

The subject of data set [6] is Nrf2-ARE pathway. Put plainly: ARE reporter assay in C6 astrocyte cell line (C6-ARE). Format: cell-based, rat.
Text: as §1

Data set [7] relates to HO-1 and NQO1 gene expression. Put plainly: Q-RTPCR of Nrf2-regulated genes in primary mouse astrocytes. Format: cell-based. The note with it: 24-h treatment at EC50 and EC90. As to the method:
as §2

The test system of data set [8] is NQO1 and HO-1 gene expression. Put plainly: Q-RTPCR in astrocytes from SOD1G93A transgenic mice. The note with it: G93A SOD1 astrocytes, 24-h pretreatment at EC90 (andrographolide also EC50). It counts as cell-based, mouse. As to the method:
as §2

The subject of data set [9] is primary fibroblasts from ALS patients. Put plainly: Oxidative stress assay in ALS patient and control fibroblasts. The note with it: 4 µM. Format: cell-based, human. As to the method:
Fibroblasts were obtained from human controls (n=3) and ALS patients with I113T SOD1 mutations (n=3) and sporadic ALS patients (n=2). […] The cells were incubated at 37 °C/5% CO2 overnight. The following day the media were removed and the cells were washed with 200 µl 1XP BS. Phenol red-free DMEM/F12 media (Sigma D6434) was added in the presence of 10% serum/2 mM Gln (++), 10% serum/0 mM Gln (+−), or 0% serum/0 mM Gln (−−). Cells were incubated at 37 °C/5% CO2 for 5 h.
Carboxy-H2DCFDA fluorescence was normalised to live cell number (total EthD1 signal after freeze/thaw – EthD1 signal after assay) to compare between the different cell lines. Data were analysed by one-way ANOVA with Bonferroni post tests using GraphPad Prism
DMEM/F12 (50 µl) media were added in the presence of 10% serum/0 mM Gln (+−) and the cells were incubated at 37 °C and 5% CO2 for 5 h.
The data were tested for normality and analysed by one-way ANOVA using GraphPad Prism.

The next data set concerns primary mouse astrocytes. The data set can be described thus: Total glutathione assay in primary mouse astrocytes and conditioned media. Format: cell-based. The conditions noted are these: 24-h pretreatment. As to the method: Primary astrocytes were grown to confluency in 24-well plates and then treated with drug (or 0.05% DMSO vehicle) in phenol red-free DMEM containing 10% FBS and penicillin/streptomycin for 24 h. Conditioned medium was collected and astrocytes were then washed in ice-cold PBS before addition of 250 μl/well of sulphosalicylic acid (SSA, 5% (w/v)). Plates were frozen at −80 °C and thawed at 37 °C, twice, and then incubated at 4 °C for 15 min. The supernatant was removed and centrifuged at 13,000 g for 5 min. Conditioned medium samples were incubated at 80 °C for 15 min and then centrifuged at 13,000 g for 5 min. Samples were either used immediately or stored at −80 °C. Reaction mixture (150 μl/well; 100 mM potassium phosphate buffer, pH 7.0, 1 mM EDTA, 6 Units/ml glutathione reductase, 1.5 mg/ml 5,5′-dithiobis(2-nitrobenzoic acid)) was added to 10 μl of each sample or glutathione standard (0–50 μM reduced glutathione) in a 96-well plate and incubated at room temperature for 5 min before addition of 50 μl/well of NADPH solution (0.16 mg/ml). A412nm was measured every minute for 15 min and the total glutathione concentration (GSH + GSSG) was calculated from initial rates. Samples were tested in triplicate.

The next data set has as its system NSC34 cells. Put plainly: NSC34 oxidative stress assay (serum withdrawal, DCF).
The test system of the next data set is NQO1 protein expression. The data set can be described thus: Western blot NQO1 in wild-type MEFs. It counts as cell-based, mouse. The conditions noted are these: EC90 concentration, 24 h. As to the method: Cells were isolated and lysed in a RIPA buffer containing protease inhibitor cocktail (Roche), quantified for protein content by Bradford assay, and loaded 30 μg per sample. Samples were run on a 12.5% acrylamide gel under reducing conditions with a prestained marker and transferred to polyvinylidene fluoride membrane and blocked in 5% milk. Mouse anti-alpha-tubulin, clone DM1A (Sigma), and rabbit anti-NQO1 (kind gift from Prof. John Hayes, University of Dundee) were used at 1 in 1000 dilution in Tris-buffered saline containing Tween. Polyclonal goat anti-mouse (Abcam-Ab97040) and polyclonal goat anti-rabbit (Dako Cat. No. P0448), horseradish peroxidase-conjugated secondary antibodies were used for detection of relevant primary antibodies. Bands were visualised by enhanced chemiluminescence reagents (Geneflow EZ-ECL kit). Relative band intensities were captured, using subsaturation, and quantified using a Gbox iChem XT digital imaging system (Syngene).

Data set [10] concerns 1321N1 astrocyte cell line. The data set can be described thus: 1321N1 oxidative stress assay (serum withdrawal, DCF).
Method: (§3) Media were then replaced with serum-free, phenol-free media for 5 h.
Data set [11] has as its system Nrf2-ARE pathway. The data set can be described thus: ARE reporter assay in CHO 4xARE-TK-GFP cells (Spectrum library hits).
A further data set relates to P-glycoprotein. More on the design: method as in PMID 19093450. The conditions noted are these: cited from earlier work.
Another data set deals with C6 astrocyte cell line. Put plainly: C6 oxidative stress assay (serum withdrawal, DCF).
In a further data set the test system is heme oxygenase 1 (HO-1). Put plainly: HO-1 immunofluorescence staining in primary mouse astrocytes. The note with it: EC90 concentration, 24 h. It counts as cell-based.
The mark [12] stands for this setting: minimum dose at which toxicity was observed.

Method for NSC34 cells: as §3

Turning to `CN1CCc2cccc3c2[C@@H]1Cc1ccc(O)c(O)c1-3` [S[+]-apomorphine], in the data set on Nrf2-ARE pathway [1], the “activation of Nrf2-ARE reporter” value is “shows some activation” and the “concentration showing activation of Nrf2-ARE reporter” value is ≥ 1 µM. Besides, the “motor neuron numbers after menadione” value in data set [2] was “significant neuroprotective effects”. Moreover, the “menadione-induced cell death (MTT)” value in data set [3] is “significantly attenuated cell death”. For the same compound, the “HO-1 and NQO1 gene expression” value in data set [4] is “statistically significant changes in gene expression”. In the data set with SOD1G93A transgenic mice (5 mg/kg sc daily from Day 21, vehicle 6 weeks), the “time taken to reach a 20% decline in rotarod performance (median)” value amounted to 8 weeks. Besides, the “oxidised glutathione levels in spinal cord” value in the data set on SOD1G93A transgenic mice (60 days of age, vehicle 7.1) came out at 4.2 µM. In the data set with SOD1G93A transgenic mice (60 days of age, vehicle 28.1%), the gastrocnemius muscle innervation was found to be 39.5%. For the same compound, the survival result with SOD1G93A transgenic mice (failure of the righting response within 10 s) is “did not observe a significant improvement in survival”. In the data set with SOD1G93A transgenic mice (later stages of disease), the “fore-limb and hind-limb stride length (gait analysis)” value is “significant delay in decline”. Moreover, in the data set on SOD1G93A transgenic mice (mouse, in vivo), the “motor neuron numbers at end-stage” value is recorded as “did not observe a significant improvement”. Besides, in the data set on HO-1 gene expression, the “HO-1 gene induction in whole spinal cord” value is on record as 3.5 fold. In addition, the Kp in [5] came to 2.28. In the data set with Nrf2-ARE pathway [6] (C6 cells), the “potency of Nrf2-ARE activation compared with the R[–] enantiomer” value is “equally potent”. In addition, the EC50 in the data set on Nrf2-ARE pathway [6] (Rattus norvegicus, C6 astrocyte cell line, concentration used in fibroblast assay, read-out: approximate EC50 concentration) was ~4000 nM. The “HO-1 and NQO1 gene expression” value in [7] is on record as “statistically significant changes in gene expression”. Moreover, in [8], the “transcripts for NQO1 and HO1” value is “significant increase in transcripts”. For the same compound, the “reduction of oxidative stress (DCF) in control fibroblasts” value in [9] (control fibroblasts) is recorded as “nonsignificant”. Further, the “basal oxidative stress (DCF) in patient fibroblasts” value in [9] (sporadic and I113T SOD1 ALS fibroblasts, 24 h) was “significant reduction in basal oxidative stress”. Moreover, the total glutathione levels result with primary mouse astrocytes was “enhance glutathione production”.
What is called IC50 is the midpoint of a concentration-inhibition curve. In the case of `C=C1CC[C@@H]2[C@](C)(CO)[C@H](O)CC[C@@]2(C)[C@@H]1C/C=C1/C(=O)OC[C@H]1O` [Andrographolide], in [2], the “motor neuron numbers after menadione” value is “significant neuroprotective effects”. The Emax came to 0% with NSC34 cells (Mus musculus, NSC-34, 24 h, read-out: NSC34 oxidative stress assay Max reduction); 35% in [10] (Homo sapiens, 1321-N1, 24 h, read-out: 1321N1 oxidative stress assay Max reduction); 69% in the data set on C6 astrocyte cell line (Rattus norvegicus, Astrocyte, 24 h, read-out: C6 oxidative stress assay Max reduction). In addition, in the data set on NSC34 cells (setting [12]), the “NSC34 oxidative stress assay Toxic dose” value amounted to 10 µM. The “HO-1 and NQO1 gene expression” value in data set [4] and in [7] was “statistically significant changes in gene expression” throughout. Further, in the data set on NQO1 protein expression, the “NQO1 protein expression, fold over vehicle” value was 3.6 fold and > 3 fold. The IC50 in data set [10] (Homo sapiens, 1321-N1, read-out: 1321N1 oxidative stress assay IC50) was 501 nM; in the data set with C6 astrocyte cell line (Rattus norvegicus, Astrocyte, read-out: C6 oxidative stress assay IC50), 192 nM. Moreover, the “1321N1 oxidative stress assay Toxic dose” value in data set [10] (setting [12]) was determined as 10 µM. Further, the EC50 in the data set on Nrf2-ARE pathway [11] (Cricetulus griseus) was 740 nM. Besides, the maximal fold induction in the data set with Nrf2-ARE pathway [11] (Cricetulus griseus, CHO, 24 h, read-out: Fold GFP induction) is 3.61. The same compound gave a Toxic dose with Nrf2-ARE pathway [11] (lowest dose at which a reduction in GFP fluorescence was observed) of 100 µM. Further, the P-glycoprotein substrate entry with P-glycoprotein is given as “substrate”. Moreover, the “C6 oxidative stress assay Toxic dose” value with C6 astrocyte cell line (setting [12]) was determined as 10 µM. Further, the “transcripts for NQO1 and HO1” value in [8] is given as “significant increase in transcripts”. For the same compound, the HO-1 staining index entry in the data set with heme oxygenase 1 (HO-1) is “significant increase in HO-1 staining”. Moreover, the total glutathione levels entry in the data set on primary mouse astrocytes was “enhance glutathione production”.
